Assay results: patent US9605002B2, “5,5-heteroaromatic anti-infective compounds” (priority 2012, dated 2017)
≈ marks a conversion by molar mass, not a printed value.

How the values were obtained:
[1] = test system: M. tuberculosis (Mtb) H37Rv; test: Microplate Alamar Blue Assay (MABA), GAS media, replicating Mtb; type: cell-based, Mycobacterium tuberculosis; conditions: Mycobacterium tuberculosis; GAS (glycerol-alanine-salt) media, replicating H37Rv; read-out: GAS media: replicating H37Rv Mtb: MIC 90
[2] = test system: M. tuberculosis (Mtb) H37Rv; test: Microplate Alamar Blue Assay (MABA), 7H12 media, replicating Mtb; type: cell-based; conditions: Mycobacterium tuberculosis, 7H12 media (no glycerol), read-out: 7H12 media: Replicating H37Rv Mtb: MIC 90
[3] = test system: VERO kidney epithelial cells; test: VERO toxicity assessment; conditions: Chlorocebus sabaeus, Vero, read-out: VERO: IC50

Row | SMILES | MIC90 [1] | MIC90 [2] | IC50 [3]
1 | Cc1cn2c(C(=O)NCc3ccc(N4CC(C)OC(C)C4)cc3)c(C)nc2s1 (stereo not drawn) [ND-020074] | < 2 µM | < 2 µM | 20 to 32 µM
2 | Cc1cn2c(C(=O)NCc3cccc(N(C)C)c3)c(C)nc2s1 [ND-020019] | < 2 µM | < 2 µM | < 32 µM
3 | CCc1nc2sc(Cl)cn2c1C(=O)NCc1ccc(C(F)(F)F)cc1 [ND-020011] | < 2 µM | 2 to 10 µM (≈ 0.776 to 3.88 µg/mL) | < 32 µM
4 | Cc1nn2c(C(=O)NCc3ccc(Oc4ccc(F)cc4)cc3)c(C)nc2s1 [ND-020052] | < 2 µM | 2 to 10 µM (≈ 0.793 to 3.96 µg/mL) | 20 to 32 µM
5 | Cc1cn2c(C(=O)NCc3cccc(N4CC(C)CC(C)C4)c3)c(C)nc2s1 (stereo not drawn) [ND-020068] | < 2 µM | < 2 µM | < 32 µM
6 | Cc1cn2c(C(=O)NCc3cccc(C(F)(F)F)c3)c(C)nc2s1 [ND-020008] | < 2 µM | < 2 µM | < 32 µM
7 | Cc1nc2sc(Cl)cn2c1C(=O)NCc1ccc(N(C)C)cc1 [ND-020022] | < 2 µM | < 2 µM | < 32 µM
8 | Cc1nc2sc(Cl)cn2c1C(=O)NCc1ccc(N2CCOCC2)c(F)c1 [ND-020039] | < 2 µM | < 2 µM | < 32 µM
9 | Cc1cn2c(C(=O)NCc3cccc(N4CC(C)OC(C)C4)c3)c(C)nc2s1 (stereo not drawn) [ND-020075] | < 2 µM | < 2 µM | < 32 µM
10 | Cc1nc2sc(C(F)(F)F)cn2c1C(=O)NCc1ccc(N2CCOCC2)c(F)c1 [ND-020038] | 2 to 10 µM | 2 to 10 µM (≈ 0.885 to 4.42 µg/mL) | < 32 µM
11 | Cc1cn2c(C(=O)NCc3ncc(C(F)(F)F)cc3Cl)c(C)nc2s1 [ND-020016] | < 2 µM | < 2 µM | < 32 µM
12 | Cc1nn2c(C(=O)NCc3ccc(Oc4ccc(F)cc4)cc3)c(C)nc2o1 [ND-020051] | 2 to 10 µM | 2 to 10 µM (≈ 0.761 to 3.8 µg/mL) | 20 to 32 µM
13 | Cc1cn2c(C(=O)NCc3cccc(N4CCOCC4)c3)c(C)nc2s1 [ND-020032] | < 2 µM | 2 to 10 µM (≈ 0.741 to 3.7 µg/mL) | < 32 µM
14 | Cc1cn2c(C(=O)NCc3ccc(N(C)C)cc3)c(C(F)(F)F)nc2s1 [ND-020025] | < 2 µM | 2 to 10 µM (≈ 0.765 to 3.82 µg/mL) | < 32 µM
15 | COc1cc(CNC(=O)c2c(C)nc3sc(C)cn23)ccn1 [ND-020017] | < 2 µM | 2 to 10 µM (≈ 0.633 to 3.16 µg/mL) | < 32 µM
16 | Cc1cn2c(C(=O)NCc3cc(F)ccc3F)c(C)nc2s1 [ND-020002] | < 2 µM | < 2 µM | < 32 µM

Row | SMILES | MIC90 [1] | MIC90 [2] | IC50 [3]
17 | Cc1cn2c(C(=O)NCc3ccc4nc(-c5ccc(F)cc5)oc4c3)c(C)nc2s1 [ND-020066] | < 2 µM | 2 to 10 µM (≈ 0.841 to 4.2 µg/mL) | 20 to 32 µM
18 | Cc1cn2c(C(=O)NCc3ccc(OC(F)(F)F)cc3)c(C)nc2s1 [ND-020006] | < 2 µM | < 2 µM | < 32 µM
19 | Cc1cn2c(C(=O)NCc3cccc(Oc4ccc(Cl)cc4)c3)c(C)nc2s1 [ND-020058] | < 2 µM | < 2 µM | 20 to 32 µM
20 | Cc1cn2c(C(=O)NCc3ccc4c(ccn4C)c3)c(C(F)(F)F)nc2s1 [ND-020080] | < 2 µM | < 2 µM | < 32 µM
21 | Cc1cn2c(C(=O)NCc3ccc(N4CCC(=O)CC4)cc3)c(C)nc2s1 [ND-020070] | < 2 µM | 2 to 10 µM (≈ 0.765 to 3.82 µg/mL) | 20 to 32 µM
22 | CNc1ccc(CNC(=O)c2c(C)nc3sc(C)cn23)cc1 [ND-020021] | < 2 µM | < 2 µM | < 32 µM
23 | Cc1nc2sc(Cl)cn2c1C(=O)NCc1ccc2c(c1)OCC2 [ND-020062] | < 2 µM | < 2 µM | < 32 µM
24 | Cc1cn2c(C(=O)NCc3ccc(N4CCOCC4)cc3)c(C)nc2s1 [ND-020033] | < 2 µM | 2 to 10 µM (≈ 0.741 to 3.7 µg/mL) | 20 to 32 µM
25 | Cc1cn2c(C(=O)NCc3ccc(Oc4ccc(C(F)(F)F)cc4)cc3)c(C)nc2s1 [ND-020055] | < 2 µM | < 2 µM | 20 to 32 µM
26 | Cc1cn2c(C(=O)NCc3ccc4c(ccn4C)c3)c(C)nc2s1 [ND-020079] | < 2 µM | < 2 µM | < 32 µM
27 | COc1ccc(CNC(=O)c2c(C)nc3sc(C)cn23)cc1 [ND-020027] | < 2 µM | < 2 µM | < 32 µM
28 | COC(=O)c1c(C)nc2sc(C)c(C)n12 [ND-009744] | < 32 µM | < 32 µM | < 32 µM
29 | Cc1nc2sc(Cl)cn2c1C(=O)Nc1ccc(Oc2ccc(C(F)(F)F)cc2)cc1 [ND-020041] | < 2 µM | < 2 µM | < 32 µM
30 | Cc1cn2c(C(=O)NCc3ccc(-n4cnnc4)cc3)c(C)nc2s1 [ND-020065] | 2 to 10 µM | 2 to 10 µM (≈ 0.705 to 3.52 µg/mL) | 20 to 32 µM
31 | CCc1nc2sc(C)cn2c1C(=O)NCc1ccc(N2CCC(c3ccc(F)cc3)CC2)cc1 [ND-020046] | < 2 µM | < 2 µM | 10 to 20 µM
